Like-named read-outs stand apart in the source and are kept apart here.

Series [1] concerns Chlamydomonas growth. The note with it: for toxicity effects on Chlamydomonas growth: TAP medium; for effect on Chlamydomonas growth rate: all three growth media. From the text:
(§1) In order to measure quantitatively the transcription of a gene sequence placed under the control of the Cyc6 promoter, we cloned downstream of this promoter the reporter gene cRLuc (Fuhrmann et al., 2004). This gene was also cloned downstream of the strong constitutive PsaD promoter (Fischer e Rochaix, 2001) obtaining the cassettes Cyc6:cRLuc and PsaD:cRLuc (FIG. 1A). Chlamydomonas cells were transformed with these cassettes according to Kindle (1990) and the transformed cells were inoculated in TAP growth medium (Harris, 1989) at a cell density of 10^6 cells/ml. 30 hours later, Ni2+ was added at a final concentration of 25, 50 and 75 μM and Luc activity was measured in the cellular lysates at different times after induction using the Luciferase Assay System (Promega, cat. E2820).
(§2) Ni2+ was added to cells transformed with the construct Cyc6:cRLuc (indicated as “transformed cells” from now on) and grown in TAP, TAP/ENEA1 and TAP/ENEA2 growth media. […] An ideal inducible gene system should be promptly reversible after the addition of an antagonist of the inducer, effective at micromolar concentrations.
(§3) Since the Cyc6 promoter is switched off by Cu2+, the use of chelators specific for that ion can be an alternative method for the reversible induction of this promoter. As an example, FIGS. 4A and 4B show, respectively, the Luc activity and the growth curves of cells transformed with the construct Cyc6:cRLuc grown in TAP/ENEA2 growth medium and induced with the chelators listed in Table 3. […] In the present invention, we propone an alternative method to the Ni2+/EDTA system: activation by Cu chelators, followed by reversion by Cu2+ addition. […] In these experiments, the Cyc6 promoter was induced by 2 μM TETA and repressed by 1 μM Cu2+ (FIG. 4D) and by 5 μM TETA and by 2 μM Cu2+ (FIG. 4E). At 88 hours from TETA addition, the culture in stationary phase was diluted 1:20 and after 30 hours (0 hours of the second cycle) TETA was added at concentrations of 2 (FIG. 4D) e 5 μM (FIG. 4E). At 16 hours Cu2+ was added at the concentration of 1 (FIG. 4D) and 2 μM (FIG. 4E). […] In the system described here, activation and repression of the promoter are obtained respectively by addition of an inducer and its antagonist. In none of the chemically regulated gene expression systems described to date, such an activation followed by repression has been described.
A: Schematic maps of the PsaD:cRLuc and Cyc6:cRLuc constructs B: Schematic maps of the Cyc6:Rb-int-1, Cyc6:Rb-int-2, Cyc6:Rb:int-3 constructs C: Growth curves in TAP medium after addition of different Ni concentrations D: Luc activity driven by PsaD and Cyc6 in TAP medium after addition of different Ni concentrations
A, C, E: Luc activity of Chlamydomonas cells transformed with the Cyc6:cRLuc construct in TAP, TAP/ENEA1 and TAP/ENEA2 growth media in the presence of 25 μM (A), 50 μM (C), 75 μM (E) Ni2+.

For series [2], the system named is Cyc6 promoter. In kind it is cell-based, Chlamydomonas reinhardtii. The note with it: for Luc activity induction relative to PsaD: 75 μM Ni2+.
Text: as §1, §2, §3
A, C, E: Luc activity of Chlamydomonas cells transformed with the Cyc6:cRLuc construct in TAP, TAP/ENEA1 and TAP/ENEA2 growth media in the presence of 25 μM (A), 50 μM (C), 75 μM (E) Ni2+. B, D, F: Growth curves of the transformed cells grown in TAP, TAP/ENEA1 and TAP/ENEA2 growth media in the presence of different Ni2+ concentrations, 25 μM (B), 50 μM (D), 75 μM (F) Ni2+. For the composition of the different media, see Table 2.
(§4) A: Luc activity of cells transformed with Cyc6:cRLuc construct induced by the different chelators listed in Table 3 in TAP/ENEA2 growth medium. B: Growth curves in TAP/ENEA2 growth medium in the presence of different Cu-chelators.

The test system of series [3] is Cyc6 promoter. As to the kind of experiment: Reversibility of Cyc6 promoter induction (Luc activity) after addition of an antagonist (EDTA or Cu2+). In kind it is cell-based, Chlamydomonas reinhardtii.
Text: as §3, §4

Turning to `c1cnc2c(c1)ccc1cccnc12` [1.10 phenanthroline, 1,10-phenanthroline], in series [1] (chelator 10 μM, TAP/ENEA2), the “toxicity on Chlamydomonas growth” value is “toxic”.
Take `Cc1cc(-c2ccc(S(=O)(=O)O)cc2)c2ccc3c(-c4ccc(S(=O)(=O)O)cc4)cc(C)nc3c2n1` [BCS, bathocuproinedisulfonic acid]: in series [2] (chelator 10 μM, TAP/ENEA2), the “activation of the Cyc6 promoter (Luc activity)” value (“activation … (Luc activity)” for short) is on record as “able to activate the Cyc6 promoter”.
Turning to `[Cu+2]` [Cu2+], the “effect on Luc activity after TETA induction” value in series [3] (2 μM Cu2+ added 16 hours after chelator addition, TAP/ENEA2) was “represses Luc activity”. In addition, in series [3] (micromolar Cu2+, TAP/ENEA2, FIG. 4C), the “reversion of TETA induction by Cu2+” value is recorded as “can be reverted”.
`O=C(O)CN(CCN(CC(=O)O)CC(=O)O)CC(=O)O` [EDTA]: in series [3] (EDTA 25, 50 and 150 μM added 16 hours after 25 or 50 μM Ni2+, TAP/ENEA2 and TAP), the “reversion of Cyc6 promoter activity (Luc) by EDTA” value is given as “only partially reverted”.
With `Cn1ccnc1CNC1CC(NCc2nccn2C)CC(NCc2nccn2C)C1` (stereo not drawn) [IM, 1,3,5-cis,cis,-triaminocyclohexane-N,N′,N″-tris-(2-methyl-(N-methylimidazole))], the “activation … (Luc activity)” value in series [2] (chelator 10 μM, TAP/ENEA2) is reported as “able to activate the Cyc6 promoter”.
For `[Ni+2]` [Ni2+], the “Cyc6 promoter activity in TAP, TAP/ENEA1 and TAP/ENEA2” value in series [2] (25 μM Ni2+) is reported as “active only in TAP/ENEA2 growth medium”. The “activation of the Cyc6 promoter” value in series [2] (25 μM Ni2+, TAP medium) is “not sufficient to activate the Cyc6 promoter”. Moreover, the “Cyc6 promoter activity relative to PsaD promoter” value in series [2] (25 μM Ni2+, TAP/ENEA2) is reported as “same level of activity as the strong PsaD promoter”. In addition, the “increase of Cyc6 promoter activity in TAP/ENEA2 with respect to TAP medium” value in series [2] (50 μM Ni2+) amounted to 25 times. The “Cyc6 promoter activity relative to PsaD” value in series [2] (50 μM Ni2+, TAP) was 1/10; in series [2] (50 μM Ni2+, TAP/ENEA1), “½”; in series [2] (50 μM Ni2+, TAP/ENEA2), 2.5 fold more than PsaD. Besides, the “Luc activity induction relative to PsaD” value in series [2] (TAP/ENEA1) and in series [2] (TAP/ENEA2) was “about two-fold” in each case. The “Luc activity after induction compared to PsaD promoter” value in series [2] (25, 50 and 75 μM Ni2+, TAP medium) is listed as “low compared to the Luc activity driven by the PsaD promoter”. The entries for the “toxicity effects on Chlamydomonas growth” value in series [1] (25 μM Ni2+), in series [1] (50 μM Ni2+) and in series [1] (75 μM Ni2+) were “does not have toxic effects”, “toxicity effects” and “toxicity effects”, respectively. Also, in series [1] (25 μM Ni2+, all three growth media (TAP, TAP/ENEA1, TAP/ENEA2)), the “toxic effects on growth” value is recorded as “only minor toxic effects”. The “effect on Chlamydomonas growth rate” value in series [1] (50 μM Ni2+) and in series [1] (75 μM Ni2+) was “evident slowing down of Chlamydomonas growth rate” in each case.
Take `NCCNCCNCCN` [TETA, triethylentetramine]: in series [2], the “Cyc6 promoter activation in TAP/ENEA2 versus TAP” value was “only in TAP/ENEA2 growth medium”, the “activation … (Luc activity)” value was “able to activate the Cyc6 promoter” and the “time course of Luc activity after chelator addition” value is on record as “increases steadily until 48 hours”. Further, the “induction in a second growth cycle” value in series [3] is listed as “a second induction is obtained”.

Source of the values: patent US20110033938A1, “SYSTEM FOR INDUCIBLE GENE EXPRESSION IN CHLAMYDOMONAS” (priority 2008, published 2011).
